Source: PubChem BioAssay (NCI)
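Method: 48-hour compound exposure of cells in 96-well plates, five concentrations, linear interpolation of endpoints. TGI: total growth inhibition.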

Key:
Test in all cases: NCI tumour cell line growth inhibition, 48 h
DMS 273 small cell lung = tested on: DMS 273 small cell lung
XF 498 CNS = tested on: XF 498 CNS
KM20L2 colon = tested on: KM20L2 colon
M19-MEL melanoma = tested on: M19-MEL melanoma
DLD-1 colon = tested on: DLD-1 colon
DMS 114 small cell lung = tested on: DMS 114 small cell lung
SNB-78 CNS = tested on: SNB-78 CNS
RXF-631 renal = tested on: RXF-631 renal
HOP-18 NSCLC = tested on: HOP-18 NSCLC

| SMILES | TGI (DMS 273 small cell lung) | TGI (XF 498 CNS) | TGI (KM20L2 colon) | TGI (M19-MEL melanoma) | TGI (DLD-1 colon) | TGI (DMS 114 small cell lung) | TGI (SNB-78 CNS) | TGI (RXF-631 renal) | TGI (HOP-18 NSCLC) |
| --- | --- | --- | --- | --- | --- | --- | --- | --- | --- |
| NCCCC(N=Cc1nc(-c2ccccc2)oc1O)C(=O)O (centres undefined) | > 100 µM | > 100 µM | > 100 µM | > 100 µM | > 100 µM | > 100 µM | > 100 µM | – | – |
| Cc1cc(N(CCC#N)CCC#N)ccc1/C=C(\NC(=O)/C=C/c1ccccc1)C(=O)Nc1ccc(Cl)cc1 | > 100 µM | > 100 µM | > 79.6 µM | > 38.1 µM | > 100 µM | > 100 µM | > 100 µM | > 100 µM | > 100 µM |
| COc1ccc(/C=N/N=C(\N)NO)cc1F | 84.4 µM | 96 µM | > 100 µM | 72.3 µM | > 100 µM | – | > 100 µM | > 100 µM | 90.5 µM |
| O=NN1CCN=C1c1ccc([N+](=O)[O-])cc1 | > 100 µM | > 100 µM | > 100 µM | > 100 µM | > 100 µM | – | > 100 µM | – | – |
| O=C(Nc1ccc([N+](=O)[O-])cc1[N+](=O)[O-])C(=O)C(C(=O)c1ccc(Cl)c(Cl)c1)C1OC(=O)c2ccccc21 (centres undefined) | > 100 µM | – | 89.7 µM | 79.4 µM | 42.4 µM | 59.5 µM | 93.3 µM | – | – |
| O=C1C[C@@H]2[C@@H](c3ccccc3)[C@@H]3C(=O)c4ccccc4NC(=O)[C@H]3[C@]2(O)c2ccccc2N1 | > 100 µM | > 100 µM | > 100 µM | > 100 µM | – | > 100 µM | > 100 µM | – | – |
| CC(C)=CCC/C(C)=C/Cc1c(O)c(C)cc2c1[nH]c1cc(O)ccc12 | > 25 µM | – | > 25 µM | > 25 µM | > 25 µM | > 25 µM | > 25 µM | – | – |
| C=CC(=O)Nc1ccccc1CC(c1c[nH]c2ccccc12)c1c[nH]c2ccccc12 | 32.1 µM | 42.3 µM | – | 30 µM | – | 30.1 µM | 43.8 µM | 32.3 µM | – |
